# Laboratory results: patent publication US10308631B2, “Selective anti-cancer compounds” (NATIONAL UNIVERSITY OF SINGAPORE, priority 2015, dated 2019)
# System: normal cell lines (panel of five)
# Experiment: MTT growth inhibition, mean over normal cell line panel
# Type: cell-based
# Conditions: Homo sapiens, 72 h
# Description: FIG. 7 is a graphical representation showing that Compound 1 (a131) induces selective cell growth inhibitory effects in a broad spectrum of human cancer cells. A panel of cancer and normal cell lines were treated with Compound 1 (a131) for 72 h and a mean G150 value (the concentration required to achieve 50% growth inhibition) was determined. A Student's t-test indicated a statistically significant difference at p<0.05 (p=0.017) between normal cells and cancer cells treated with Compound 1 (a131). […]
# The MTT assay was performed by adding thiazolyl blue tetrazolium bromide (MTT reagent, Invitrogen) at a concentration of 0.5 mg/mL to each cell culture and the resulting mixture incubated for 4 h at 37° C. […] The absorbance of each well at 540 nm and 660 nm was measured using a microplate reader (Benchmark plus, BIO-RAD). The optical density (OD) values were calculated by subtracting the absorbance at 660 nm from the absorbance at 540 nm. […]
smiles,measurement,value
"N#C/C(=C\c1cccc2cnccc12)c1c[nH]c2ccccc12 [Compound 1, (Z)-2-(1H-indol-3-yl)-3-(isoquinolin-5-yl)acrylonitrile]",GI50,6.5 µM
